Measured values as given in publication PMC10340464, “Identification of a Novel SSTR3 Full Agonist for the Treatment of Nonfunctioning Pituitary Adenomas” (Cancers, 2023).

How the values were obtained:
[1] = tested on: κ (KOP); assay: Single-dose binding assay on κ opioid receptor; details: 10^−5 M
[2] = tested on: SSTR3-tGFP; assay: Receptor internalization in U2OS-transfected cells (SSTR3-tGFP); assay type: cell-based, human; details: 3 h, high-content imaging, n = 3, method: percentage of activity relative to SST28 10^−6 M
Experimental: Compounds were tested at five concentrations (10^−5, 10^−6, 10^−7, 10^−8, 10^−9 M) in comparison to untreated cells.
SST agonists were added to U2OS recombinant cell lines in OptiMeM medium (Life technologies 51985-034, Monza, Italy) for 3 h (SSTR2, SSTR3) or 7 h (SSTR5) (n = 3). After formaldehyde fixation, nuclei were stained using DAPI (2 µg/mL), and the fluorescence was measured with BD Pathway 855 High-Content Bioimager from Becton Dickinson. The receptor internalization was calculated using AttoVision 1.6 Software. Approximately 500 cells per field were analyzed. […]
(Invitrogen, Carlsbad, CA). Stable transfectants were selected in the presence of 500 µg/ml G-418. […]
% picric acid in phosphate buﬀer (pH 6.9) for 30 minutes at room temperature (RT). […]
3.2. U2OS human cell lines transfected with human receptors (SSTR2-tGFP, SSTR3-tGFP,
Compounds were tested at ﬁve d iﬀerent concentrations (10-5, 10-6, 10-7, 10-8, 10^-9 M) in comparison to untreated cells.
(§1) U2OS recombinant cell lines were obtained from Innoprot (Derio, Spain). […] Nuclei were stained using DAPI (2 μg/ml) and the ﬂuorescence was measured using a BD Pathway 855 High-Content Bioimager from Becton Dickinson. The receptor internalization was calculated using AttoVision Software. […]
(§2) Agonist activity of test compounds was calculated relatively to positive control

[3] = at high doses; ref manuscript in preparation; cited from earlier work
Source text: One important aspect relates to safety margins. Hyperglycemia is a common side effect of SSTR panagonists such as Pasireotide. […] What remains to be ascertained clinically is whether the higher agonistic activity on SSTR3 may allow us to define a dose at which full receptor engagement is observed in the absence of significant hyperglycemia.

[4] = tested on: HA-SSTR3; assay: SSTR3 internalization in HEK293 cells, confocal microscopy; assay type: cell-based, human; details: 1 µM agonist, 30 min 37 °C
Experimental: HEK293 cells obtained from DSMZ (Braunschweig, Germany) were transfected with plasmid encoding […] HA-tagged SSTR2, SSTR3 or SSTR5 receptors.
HEK293 cells stably expressing HA-tagged hSSTR cultures were preincubated with anti-HA antibody for 2 h at 4 °C and then exposed to 1 µM agonist for 30 min at 37 °C before fixing and further labeling with Alexa488-conjugated secondary antibody. After mounting with Roti®-MountFluorCare DAPI, cultures were examined using a Zeiss LSM510 META laser scanning confocal microscope (Zeiss, Jena, Germany) (see Supplementary Materials for details).
GH produced by primary cultures was tested by ELISA assay using Rat Growth Hormone Biotrak Enzyme immunoassay Mouse/Rat Growth ELISA (DSL-10-72100) or Rat/Mouse Growth Hormone ELISA (Millipore EZRMGH-45K) diluting supernatants 1:20, according to manufacturer’s instructions. […]
as §1, §2

[5] = tested on: NFPAs of MENX (homozygous mutant) rats; assay: In vivo efficacy against endogenous NFPAs in MENX rats; set-up: species or system rat; details: 12.5 mg/kg s.c. every 14 days, 56 days
Experimental: Tumor monitoring in rats was conducted using MRI at day 0 (pretreatment) and every 14 days post-treatment (days 14, 28, 42, 56). MRI was performed on a 7T preclinical scanner (Bruker BioSpin MRI GmbH, Ettlingen, Germany) using previously published procedures suitable to visualize the rat pituitary tumors. In the T2 weighted datasets, regions of interest (ROIs) were manually segmented around the adenomas in every slice where they appeared; tumor volumes were finally calculated from the data (area of particular ROIs and slice thickness) using an implemented algorithm in Osirix/Horos (Pixmeo SARL/Horos Project) as previously described.
RNA was extracted using RNeasy Mini Kit (Qiagen, Cluj-Napoca, Romania) following the manufacturer’s instructions. Total RNA concentration and purity was assessed using Nanodrop 2000 spectrophotometer (Thermo Scientific, Waltham, MA, USA). Total RNA was retrotranscribed using random hexamer primers and the cDNA First Strand Synthesis kit (Thermo Scientific). Details regarding the quantitative PCR (qPCR) procedure used to determine the absolute expression levels of the different somatostatin receptor genes (Sstr1-5) have been previously reported. Specific sets of primers for these genes have been previously validated and reported. To control for the amount of RNA and for the efficiency of the retrotranscription reaction, mRNA copy numbers of the different transcripts analyzed were adjusted by β-actin (ACTB) expression (used as housekeeping gene).
Ki67-positive tumor cells per 100,000 µm^2 were counted under the microscope in 3 independent areas for each tumor sample.
Linear mixed-effects (LME) models were applied for longitudinal analysis of tumor volume growth, with absolute tumor volume at day 0 used for scaling subsequent measurements of each individual, as previously reported. Relative volumes were transformed by natural logarithms for use as model outcomes in order to meet the normal distributional assumptions. Linear and quadratic growth predictors and interactions were considered for significance testing, performed by the F-test, with results presented as the mean ± standard error of the mean (SEM). Statistical significance between two series of data was determined by one-way ANOVA. A p value < 0.05 was considered statistically significant.

[6] = target: T1, hSSTR3 (Homo sapiens, UniProt P32745); assay: Radioligand binding to human SSTR3; details: from binding IC50
T1 construct: expressed in transfected cells; host or cells: CHO-K1 (membranes)
T1 sequence (P32745 whole entry): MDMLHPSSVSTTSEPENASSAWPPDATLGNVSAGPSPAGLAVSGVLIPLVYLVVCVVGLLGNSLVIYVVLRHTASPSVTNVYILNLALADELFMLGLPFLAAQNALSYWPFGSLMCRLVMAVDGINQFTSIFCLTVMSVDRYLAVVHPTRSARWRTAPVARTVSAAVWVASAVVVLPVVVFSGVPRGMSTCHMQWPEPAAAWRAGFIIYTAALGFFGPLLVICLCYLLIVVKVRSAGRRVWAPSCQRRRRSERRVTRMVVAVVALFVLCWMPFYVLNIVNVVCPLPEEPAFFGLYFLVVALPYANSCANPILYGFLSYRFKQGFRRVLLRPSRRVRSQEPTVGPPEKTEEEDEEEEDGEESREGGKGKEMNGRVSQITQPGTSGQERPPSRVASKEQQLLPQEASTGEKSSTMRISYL
Experimental: Data were analyzed with XLfit (IDBS) software (version 5.3.1.3) using nonlinear regression applied to a sigmoidal dose–response model. Agonist activity of test compounds is expressed as a percentage of the activity of the reference agonist at its EC100 concentration.
After 60 min at 25°C in a water bath, samples were ﬁltered over GF/B ﬁlters (Perkin
Elmer, 6005177) presoaked in 0.5% PEI for 2h at RT) with a Filtermate Harvester (Perkin
Elmer ). Filters were washed 6 times with 0.5 ml of ice-cold ﬁltration buﬀer, incubated 15
min. on an orbital shaker with 50 µl of Microscint 20 (Packard) and counted for
radioactivity with a TopCountTM or MicroBetaTM for 1 min/well.
Dose-response curve were performed for each SSTR (agonist range 10-11 – 3x10-7 M),
Each point was performed in duplicate2,3
Dose-response data from test compounds were analysed with XLﬁt (IDBS) software
using nonlinear regression applied to a sigmoidal dose-response model.
Agonist activity of test compounds is expressed as a percentage of the activity of the
reference agonist at its EC100 concentration.

SMILES: COc1cc2cccc(OC)c2cc1C[C@H]1NC(=O)[C@H](Cc2ccc(O)cc2)NC(=O)[C@@H]2C[C@@H](OC(=O)NCCN)CN2C(=O)[C@H](Cc2ccccc2)NC(=O)[C@H](Cc2ccc(OCc3ccccc3)cc2)NC(=O)[C@H](CCCCN)NC1=O [ITF2984, Cyclo[Tyr(Bn)-Phe-Pro(4-OCONH(CH2)2NH2)-Tyr-3,8-diMeONal-Lys]]
- Percentage of inhibition of opioid receptor κ (KOP) (agonist) [1]: 97%
- Receptor internalization in U2OS-transfected cells, SSTR3, at 10^−5 M ([2]; 10^−5 M): 61.1
- Receptor internalization in U2OS-transfected cells, SSTR3, at 10^−6 M (value in brackets) ([2]; 10^−6 M): 62.5
- glycemia in clinical studies [3]: increased glycemia
- internalization of SSTR3 in transfected HEK293 cells [4]: strong internalization
- change in number of Ki67-positive cells versus placebo, female rats ([5]; female MENX rats): −57%
- tumor volume during treatment (MRI), female rats ([5]; female MENX rats, MRI every 14 days): only a slight increase in tumor volume
- number of Ki67-positive cells per area, average, female rats ([5]; female MENX rats, placebo 312): 134 cells per 100,000 mm^2
- change in number of Ki67-positive cells versus placebo, male rats ([5]; male MENX rats): −33.5%
- number of Ki67-positive cells per area, average, male rats ([5]; male MENX rats, placebo 375): 250 cells per 100,000 mm^2
- improved affinity for SSTR3 compared to Octreotide or Pasireotide [6]: 10 fold
